The record followed here is ChEMBL document CHEMBL1136321, “Regioselective synthesis and cytotoxicities of camptothecin derivatives modified at the 7-, 10- and 20-positions” (Bioorg Med Chem Lett, 2003).

Some results are limits rather than exact numbers.

Assay type in all cases: functional, cell-based
One experiment relates to A2780. In words: In vitro cytotoxicity against A2780 (human ovarian cancer).
The subject of another experiment is Bel-7402. In words: In vitro cytotoxicity against Bel7402 (human liver cancer). To be noted: Bel-7402, Liver.
In the next experiment the test system is KB. In words: In vitro cytotoxicity against KB (human epidermoid carcinoma of the nasopharynx).
Another experiment concerns KB VCR R. The experiment is described as follows: In vitro cytotoxicity against KB/VCR (Vincristine-resistant cancer cell line). The following applies: Homo sapiens.
The subject of a further experiment is HCT-8. In words: In vitro cytotoxicity against HCT-8 (human colon cancer).
For the next experiment, the system named is A549. The experiment is described as follows: In vitro cytotoxicity against A549 (human lung cancer).

`CC[C@@]1(O)C(=O)OCc2c1cc1n(c2=O)Cc2c-1nc1ccccc1c2COC(=O)COc1ccc(F)cc1`: the IC50 – broadly, the concentration needed to halve the response being measured – was found to be 8 nM with A2780; 9 nM in the experiment with Bel-7402; 7 nM with KB; 49 nM in the experiment with KB VCR R; 8 nM with HCT-8; 57 nM with A549.
In the case of `CC[C@@]1(OC(=O)COc2ccc(F)cc2)C(=O)OCc2c1cc1n(c2=O)Cc2c-1nc1ccccc1c2COC(=O)COc1ccc(F)cc1`, the IC50 with A2780 is 58 nM; in the experiment on Bel-7402, 26 nM; in the experiment on KB, 72 nM; in the experiment on KB VCR R it was above 1000 nM; with HCT-8, 52 nM; in the experiment on A549, 293 nM.
For the compound `CC[C@@]1(OC(=O)COc2ccc(C#N)c(F)c2)C(=O)OCc2c1cc1n(c2=O)Cc2c-1nc1ccccc1c2COC(=O)COc1ccc(C#N)c(F)c1`, the IC50 in the experiment on A2780 was found to be 10 nM; in the experiment on Bel-7402, 33 nM; in the experiment with KB, 9 nM; with KB VCR R, 53 nM; in the experiment with HCT-8 it was 48 nM; in the experiment on A549 it was 55 nM.
For the compound `CC[C@@]1(OC(=O)COc2ccc(OC)cc2)C(=O)OCc2c1cc1n(c2=O)Cc2c-1nc1ccccc1c2COC(=O)COc1ccc(OC)cc1`, the IC50 with A2780 is 71 nM; in the experiment with Bel-7402, 84 nM; in the experiment with KB, 310 nM; with KB VCR R it was 267 nM; in the experiment on HCT-8, 76 nM; in the experiment with A549 it was 348 nM.
For `CC[C@@]1(OC(=O)COc2ccc(F)cc2)C(=O)OCc2c1cc1n(c2=O)Cc2cc3cc(OC(=O)COc4ccc(F)cc4)ccc3nc2-1`, the concentration for half-maximal inhibition (IC50) with A2780 came out at 15 nM; with Bel-7402 it was 95 nM; in the experiment on KB, 55 nM; in the experiment on KB VCR R, 295 nM; in the experiment with HCT-8, 82 nM; in the experiment on A549, 401 nM.
`CC[C@@]1(OC(=O)COc2ccc(OC)cc2)C(=O)OCc2c1cc1n(c2=O)Cc2cc3cc(OC(=O)COc4ccc(OC)cc4)ccc3nc2-1`: the IC50 in the experiment on A2780 was determined as 88 nM; in the experiment on Bel-7402, 200 nM; in the experiment on KB, 69 nM; in the experiment with KB VCR R it was 460 nM; in the experiment on HCT-8 it was 97 nM; with A549, 718 nM.
In the case of `CC[C@@]1(O)C(=O)OCc2c1cc1n(c2=O)Cc2c-1nc1ccccc1c2COC(=O)Cc1cc(OC)c(OC)c(OC)c1`, the half-maximal inhibitory concentration (IC50) in the experiment with A2780 turned out to be 61 nM; in the experiment on Bel-7402, 72 nM; in the experiment on KB, 36 nM; in the experiment with KB VCR R, 340 nM; in the experiment with HCT-8, 55 nM; with A549, 160 nM.
In the case of `CC[C@@]1(O)C(=O)OCc2c1cc1n(c2=O)Cc2cc3cc(OC(=O)COc4ccc(F)cc4)ccc3nc2-1`, the IC50 in the experiment with A2780 was 54 nM; in the experiment on Bel-7402, 95 nM; with KB, 53 nM; in the experiment with KB VCR R it was 244 nM; in the experiment with HCT-8, 62 nM; in the experiment with A549, 80 nM.
Consider `CC[C@@]1(OC(=O)Cc2cc(OC)c(OC)c(OC)c2)C(=O)OCc2c1cc1n(c2=O)Cc2c-1nc1ccccc1c2COC(=O)Cc1cc(OC)c(OC)c(OC)c1`, for which the IC50 in the experiment on A2780 came to 68 nM; in the experiment on Bel-7402, 82 nM; in the experiment with KB, 78 nM; in the experiment on KB VCR R, 947 nM; with HCT-8, 76 nM; with A549 it was 98 nM.
On to `CC[C@@]1(O)C(=O)OCc2c1cc1n(c2=O)Cc2c-1nc1ccccc1c2COC(=O)COc1ccc(OC)cc1`, for which the IC50 was found to be 9 nM in the experiment with A2780; 8 nM in the experiment with Bel-7402; 8 nM in the experiment with KB; 51 nM in the experiment on KB VCR R; 9 nM in the experiment with HCT-8; 69 nM in the experiment on A549.
In the case of `CC[C@@]1(O)C(=O)OCc2c1cc1n(c2=O)Cc2cc3cc(OC(=O)COc4ccc(OC)cc4)ccc3nc2-1`, the IC50 in the experiment with A2780 was 65 nM; in the experiment with Bel-7402 it was 74 nM; in the experiment on KB, 47 nM; in the experiment on KB VCR R it was 275 nM; in the experiment on HCT-8, 61 nM; in the experiment on A549, 190 nM.
Take `CC[C@@]1(O)C(=O)OCc2c1cc1n(c2=O)Cc2c-1nc1ccccc1c2COC(=O)COc1ccc(C#N)c(F)c1`: the IC50 in the experiment with A2780 was below 1 nM; in the experiment with Bel-7402, below 1 nM; in the experiment with KB, below 1 nM; with KB VCR R it was 437 nM; with HCT-8, below 1 nM; in the experiment with A549 it was 8 nM.
For `CC[C@@]1(O)C(=O)OCc2c1cc1n(c2=O)Cc2cc3ccccc3nc2-1` [CAMPTOTHECIN], the IC50 amounted to 7 nM in the experiment with A2780; 7 nM in the experiment on Bel-7402; 9 nM with KB; 9 nM with KB VCR R; 7 nM in the experiment on HCT-8; 8 nM with A549.
With `CC[C@@]1(O)C(=O)OCc2c1cc1n(c2=O)Cc2cc3c(CN(C)C)c(O)ccc3nc2-1` [TOPOTECAN], the IC50 with A2780 was 58 nM; in the experiment on Bel-7402, 78 nM; in the experiment with KB VCR R, 339 nM; with HCT-8 it was 74 nM; with A549, 87 nM.
